Results as given in US20070232625A1, “Fungicidal Mixtures” (priority 2004, published 2007).

Test system: Alternaria solani
Assay: Activity against early blight of tomato caused by Alternaria solani (protective spray test on potted tomato plants)
Format: in vivo
Details: tomato cultivar Golden Princess, evaluated after 5 days
Protocol: The active compounds, separately or jointly, were prepared as a stock solution comprising 0.25% by weight of active compound in acetone or DMSO. 1% by weight of the emulsifier Uniperol® EL (wetting agent having emulsifying and dispersant action based on ethoxylated alkylphenols) was added to this solution, and the mixture was diluted with water to the desired concentration.
Leaves of potted plants of the cultivar “Golden Princess” were sprayed to runoff point with an aqueous suspension having the concentration of active compound stated below. The next day, the leaves were infected with an aqueous spore suspension of Alternaria solani in a 2% strength biomalt solution having a density of 0.17×10^6 spores/ml. The plants were then placed in a water-vapor-saturated chamber at temperatures between 20 and 22° C. After 5 days, the disease on the untreated but infected control plants had developed to such an extent that the infection could be determined visually in %.
The visually determined percentages of infected leaf areas were converted into efficacies in % of the untreated control:
The efficacy (E) is calculated as follows using Abbot's formula: E=(1−α/β)·100 • α corresponds to the fungal infection of the treated plants in % and • β corresponds to the fungal infection of the untreated (control) plants in %
An efficacy of 0 means that the infection level of the treated plants corresponds to that of the untreated control plants; an efficacy of 100 means that the treated plants were not infected.
The expected efficacies of mixtures of active compounds were determined using Colby's formula (Colby, S. R. “Calculating synergistic and antagonistic responses of herbicide combinations”, Weeds, 15, 20-22, 1967) and compared with the observed efficacies.
Colby's formula: E=x+y−x·y/100 • E expected efficacy, expressed in % of the untreated control, when using the mixture of the active compounds A and B at the concentrations a and b • x efficacy, expressed in % of the untreated control, when using the active compound A at the concentration a
y efficacy, expressed in % of the untreated control, when using the active compound B at the concentration b

Structure (SMILES)	Efficacy in % of the untreated control (1.25 ppm active compound in the spray liquor) [%]	Efficacy in % of the untreated control (5 ppm active compound in the spray liquor, infected next day) [%]	Efficacy in % of the untreated control (1 ppm active compound in the spray liquor) [%]	Efficacy in % of the untreated control (6.25 ppm active compound in the spray liquor) [%]
CC1CCN(c2c(-c3c(F)cc(F)cc3F)c(Cl)nc3ncnn23)CC1 [I, 5-chloro-7-(4-methylpiperidin-1-yl)-6-(2,4,6-trifluorophenyl)-[1,2,4]triazolo[1,5-a]pyrimidine]	0	22	–	–
CO/N=C(\Cc1cccnc1)c1cc(Cl)cc(Cl)c1 [II (pyrifenox), 1-(3,5-dichlorophenyl)-2-pyridin-3-ylethanone-O-methyloxime]	–	–	0	0
